PubChem BioAssay AID504765 (Sanford-Burnham Center for Chemical Genomics, 2011)
Activity calls are given as the source filed them. The rule behind the calls is not given here.

Biological target: glucose-6-phosphate dehydrogenase-6-phosphogluconolactonase (Plasmodium falciparum 3D7)
Test: concentration-dependent PfGluPho enzyme inhibition – biochemical, fluorescence intensity, dose response (AID 504765)
Conditions: Recombinant PfG6PD enzyme, fluorescence intensity (NADPH)

CCC(CO)[n+]1c(C)cc(/C=C2\Sc3ccccc3N2Cc2ccccc2)cc1C (stereo unspecified)
IC50: 12.2 µM

CCOC(=O)c1c(C2COc3ccccc3O2)csc1NC(=O)c1ccco1 (stereo unspecified)
IC50: 14.2 µM

Cc1ccc(NC2=C(NC(=O)c3ccccc3)C(=O)c3ccccc3C2=O)cc1Cl
IC50: 10.2 µM

O=c1c2ccccc2sn1-c1ccc(S(=O)(=O)N2CCCC2)cc1
IC50: 6.88 µM

COCCNC(=S)Nc1ccc(N2CCOCC2)c(S(=O)(=O)Nc2ccc(Cl)cc2)c1
IC50: 19.4 µM

CCCCC1C(=O)N(c2ccccc2)N(c2ccc(O)cc2)C1=O (stereo unspecified)
IC50: 12.5 µM

c1ccc(-c2cn3c(n2)CCc2ccc4cccnc4c2-3)cc1
IC50: 8.54 µM

O=S(=O)(Nc1ccc(Cl)cc1)c1ccc(N2CCOCC2)c(NC(=S)NCCN2CCOCC2)c1
IC50: 15.1 µM

CC(C)Sc1nnc(NC(=O)c2ccc3c(c2)OCO3)s1
IC50: 4.21 µM

COc1ccccc1N1C(=O)C=C(Sc2nc(C)cc(C)n2)C1=O
IC50: 7.18 µM

COc1ccc(C(=O)Nc2nnc(S(=O)(=O)N3CCOCC3)s2)cc1
IC50: 7 µM

[O-][N+](=Cc1ccccc1)c1ccc(Cl)cc1
IC50: 3.34 µM

Cc1cc(C)nc(NC(N)=NCCc2ccccc2)n1
IC50: 15 µM

Oc1cc(CNCc2ccccc2)c(O)cc1CNCc1ccccc1
IC50: 3.36 µM

O=c1[nH]c(NCCO)c(N=Cc2ccccc2)c(=O)[nH]1
IC50: 1.03 µM

Cc1ccc(S(=O)(=O)SC/C=C/CSS(=O)(=O)c2ccc(C)cc2)cc1
IC50: 10.3 µM

O=C1NC(=S)NC(=O)C1=Cc1ccc(Br)s1
IC50: 7.9 µM

O=C(Nc1nc(-c2ccncc2)cs1)C1COc2ccccc2O1 (stereo unspecified)
IC50: inactive

COc1ccc(CCn2c(NN=C(C)C)nc3c2c(=O)[nH]c(=O)n3C)cc1
IC50: 4.82 µM

CS(=O)(=O)c1ccc(N)c(SSc2cc(S(C)(=O)=O)ccc2N)c1
IC50: 4.07 µM

Cc1ccsc1/C=N/NC(=O)c1cccc(S(=O)(=O)Nc2ccccc2Cl)c1
IC50: 13.2 µM

Cc1cc(C)c2c(=O)n(CC(=O)Nc3cccc(F)c3)sc2n1
IC50: 1.89 µM

O=C(CCC(=O)Nc1ccccc1Cl)N/N=C/c1ccccc1
IC50: 3.17 µM

COc1ccc(C2(CNC(=O)c3ccc(OC)c([N+](=O)[O-])c3)CCCCC2)cc1OC
IC50: 8.33 µM

CCC(=O)OCOc1ccc(/C=C2/CCC(CN(C)C)C2=O)cc1 (stereo unspecified)
IC50: 6.86 µM

Cc1cc(SCC(=O)N/N=C/c2ccco2)nc2ccccc12
IC50: 8.11 µM

CC(NC(=O)c1sc2cc([N+](=O)[O-])ccc2c1Cl)C(C)(C)C (stereo unspecified)
IC50: 18.5 µM

CN(C)c1ccc(C=c2c3cc(O)ccc3n3c2cc(-c2ccccc2)[n+]3C)cc1
IC50: 9.89 µM

CN1C(=O)C(N=Nc2ccc([N+](=O)[O-])cc2)SC1=S (stereo unspecified)
IC50: 5.43 µM

CN1CCN(C(=O)c2sc(=S)n(-c3ccccc3)c2N)CC1
IC50: 7.25 µM

CN(C)c1ccc(/C=C/c2ccc3c4ccccc4ccc3[n+]2-c2ccccc2)cc1
IC50: inactive

CCC(=O)OCCNc1cc(Sc2nc3ccccc3s2)c2nonc2c1[N+](=O)[O-]
IC50: 16.1 µM

COc1c(O)ccc2c1CN1CCc3cc4c(cc3C1C2)OCO4 (stereo unspecified)
IC50: 15.5 µM

CCOc1ccc2ccccc2c1/C=N/NC(=O)c1ccncc1
IC50: 3.49 µM

OCCN1CCN(C(=S)c2ccc(-c3ccccc3)cc2)CC1
IC50: 19.6 µM

N#CC1=C(N)Oc2c(O)cc3ccccc3c2C1c1ccsc1 (stereo unspecified)
IC50: 6.71 µM

Cc1cc(=O)[nH]c(N/N=C/c2c(C)nn(-c3ccccc3)c2Cl)n1
IC50: 8.43 µM

CSc1nnc(NC(=O)c2ccc3c(c2)OCO3)s1
IC50: 2.82 µM

COC1=C(Br)C(=O)c2nc(C)ccc2C1=O
IC50: 4.24 µM

O=[N+]([O-])c1cnc(Sc2ccncn2)c([N+](=O)[O-])c1
IC50: 9.62 µM

Cc1cc(C)c2c(=O)n(CC(=O)Nc3ccc(Cl)cc3)sc2n1
IC50: 2.51 µM

Cc1cc(NC(=O)c2oc3ccccc3c2C)ccc1-n1cnnn1
IC50: 4.54 µM

O=C(Nc1nnc(S(=O)(=O)N2CCCCCC2)s1)c1cccc(Br)c1
IC50: 15.1 µM

COC1=C(N)C(=O)c2nc(C)ccc2C1=O
IC50: 6.3 µM

Cc1ccc(-c2c(C(=O)N/N=C/c3cccs3)nnn2-c2nonc2N)cc1
IC50: 3.91 µM

O=C(O)CSc1cc(NS(=O)(=O)c2cccc([N+](=O)[O-])c2)c2ccccc2c1O
IC50: 1.34 µM
